Experiments:
A549 cell line = assay: MTT cytotoxicity assay (24 h), A549 cell line; format: cell-based; conditions: for SI for A549: selectivity index, NIH3T3 vs A549
Protocol: Thanks to this color change, the cell viability rate can be determined spectrometrically.[33]Table 1 presents the results of the MTT experiment performed with the 24 h procedure using two cancer lines (A549 and MCF-7) and a healthy cell line (NIH3T3). Doxorubicin is used as a reference drug. MTT assays were performed as previously described.[34]−[36] Cytotoxicity assays of compounds 6a–6j were performed with the 24 h MTT procedure. […] These compounds include allyl (6d), phenyl (6g), and 4-chlorophenyl (6j) moieties. […] The selectivity indexes of compounds 6d, 6g, and 6j were calculated as 2.3, 7.23, and 5.68, respectively. […] It can be predicted that the side effect and toxic effect profile of compound 6g will be less than that of compounds 6d and 6j.

EGFR enzyme = target: T1, EGFR enzyme (Homo sapiens, UniProt P00533); assay: EGFR Kinase Assay Kit inhibition assay; format: biochemical; conditions: in vitro kit method
T1 construct: purchased
Protocol: The EGFR Kinase Assay Kit (available from ref ([38])) was used for the EGFR inhibition. The kit protocol was followed, and the experiment was carried out in vitro.
EGFR kinase, which belongs to the ErbB family of tyrosine kinases, is known to regulate the signaling pathways of cell survival, migration, proliferation, differentiation, and adhesion.[52] Inhibition of this member of the tyrosine kinase family, which is a new approach in cancer chemotherapy, is important.

MCF-7 cell line = assay: MTT cytotoxicity assay (24 h), MCF-7 cell line; format: cell-based; conditions: for IC50: MTT, 24 h, MCF-7 cell line, means of quartet assays; for SI for MCF-7: selectivity index, NIH3T3 vs MCF-7
Protocol: (§1) The principle of the MTT test used to determine the metabolic activity of living cells is based on the reduction of […] 3-(4,5-dimethylthiazol-2-yl)-2,5 diphenyltetrazolium salt to the purple-colored formazan product. Thanks to this color change, the cell viability rate can be determined spectrometrically.[33]Table 1 presents the results of the MTT experiment performed with the 24 h procedure using two cancer lines (A549 and MCF-7) and a healthy cell line (NIH3T3). Doxorubicin is used as a reference drug. MTT assays were performed as previously described.[34]−[36]
(§2) Cytotoxicity assays of compounds 6a–6j were performed with the 24 h MTT procedure. […]. […] […]. […] The selectivity indexes of compounds 6d, 6g, and 6j were calculated as 2.3, 7.23, and 5.68, respectively. […] It can be predicted that the side effect and toxic effect profile of compound 6g will be less than that of compounds 6d and 6j.

NIH3T3 healthy cell line = assay: MTT cytotoxicity assay (24 h), healthy cell line NIH3T3; format: cell-based; conditions: means of quartet assays
Protocol: as §1, §2

A549 cells = assay: Mitochondrial membrane potential (MMP) by flow cytometry, JC-1 dye; format: cell-based; conditions: substance at IC50 concentration, 24 h incubation
Protocol: In the first step, A549 cells seeded in 25 mL flasks were incubated for 24 h in a 5% CO2 incubator. […] Cells were collected and centrifuged in line with the instructions in the kit at the conclusion of this period. The upper part was removed, JC-1 dye was added, and the mixture was incubated for 10–15 min at 37 °C. The CytoFLEX flow cytometer (Beckman Coulter Life Sciences, USA) and CytExpert for CytoFLEX Acquisition and Analysis Software Version 2.2.0.97 were used to read it after two washings with washing solution at the conclusion of the period.
Both the inhibitory compound and the reference drug were administered at IC50 concentrations. After a 24 h incubation period (5% CO2), mitochondrial membrane potential was determined by flow cytometry using JC-1 dye.

[1] = Homo sapiens, A549, 24 h, MTT, 24 h, A549 cell line, means of quartet assays
[2] = MTT, 24 h, A549 cell line, means of quartet assays

T1 sequence (P00533 25-1210): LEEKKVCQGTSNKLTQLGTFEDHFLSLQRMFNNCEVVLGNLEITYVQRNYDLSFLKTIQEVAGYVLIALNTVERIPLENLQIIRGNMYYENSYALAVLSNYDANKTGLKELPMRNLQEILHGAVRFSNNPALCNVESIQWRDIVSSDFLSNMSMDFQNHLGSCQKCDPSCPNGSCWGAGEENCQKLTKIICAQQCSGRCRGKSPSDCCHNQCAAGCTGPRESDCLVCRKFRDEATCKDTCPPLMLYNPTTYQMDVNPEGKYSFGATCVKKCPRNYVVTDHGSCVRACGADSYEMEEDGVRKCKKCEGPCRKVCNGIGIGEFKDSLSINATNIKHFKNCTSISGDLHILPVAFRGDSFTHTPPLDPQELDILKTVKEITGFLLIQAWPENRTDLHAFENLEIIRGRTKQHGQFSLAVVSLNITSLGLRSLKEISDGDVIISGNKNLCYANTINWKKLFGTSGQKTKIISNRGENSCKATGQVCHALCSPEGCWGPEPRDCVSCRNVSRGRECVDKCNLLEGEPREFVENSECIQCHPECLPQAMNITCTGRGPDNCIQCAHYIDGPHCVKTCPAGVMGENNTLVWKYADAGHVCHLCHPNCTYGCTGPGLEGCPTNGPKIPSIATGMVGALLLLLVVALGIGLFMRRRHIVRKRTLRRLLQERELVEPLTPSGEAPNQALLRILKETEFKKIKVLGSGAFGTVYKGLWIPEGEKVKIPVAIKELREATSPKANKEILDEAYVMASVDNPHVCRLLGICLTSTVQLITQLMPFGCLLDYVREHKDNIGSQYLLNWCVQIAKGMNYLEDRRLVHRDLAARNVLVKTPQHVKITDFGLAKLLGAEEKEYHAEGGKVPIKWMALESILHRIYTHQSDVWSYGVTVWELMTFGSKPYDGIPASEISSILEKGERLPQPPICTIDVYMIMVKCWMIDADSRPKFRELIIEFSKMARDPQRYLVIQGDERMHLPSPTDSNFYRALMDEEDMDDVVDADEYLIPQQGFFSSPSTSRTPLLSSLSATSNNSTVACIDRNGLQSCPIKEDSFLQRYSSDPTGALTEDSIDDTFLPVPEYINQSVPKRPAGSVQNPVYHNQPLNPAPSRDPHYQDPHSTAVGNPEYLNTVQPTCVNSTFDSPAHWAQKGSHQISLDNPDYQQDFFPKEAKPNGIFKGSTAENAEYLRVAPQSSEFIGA

| SMILES | SI for A549 (A549 cell line) | IC50 (EGFR enzyme) [µM] | IC50 (MCF-7 cell line; Homo sapiens, MCF7, 24 h) [µM] | IC50 (MCF-7 cell line) [µM] | SI for MCF-7 (MCF-7 cell line) | IC50 (NIH3T3 healthy cell line; Mus musculus, NIH3T3, 24 h) [µM] | IC50 (NIH3T3 healthy cell line) [µM] | mitochondrial membrane potential (P3) (A549 cells) [%] | IC50 (A549 cell line; [1]) [µM] | IC50 (A549 cell line; [2]) [µM] | IC50 A549 (A549 cell line; [2]) |
| --- | --- | --- | --- | --- | --- | --- | --- | --- | --- | --- | --- |
| O=C(CSc1nnc(Nc2ccccc2)s1)N1N=C(c2ccccc2)CC1c1ccc([N+](=O)[O-])cc1 (stereo not drawn) [Compound 6g, 1-(5-(4-Nitrophenyl)-3-phenyl-4,5-dihydro-1H-pyrazol-1-yl)-2-((5-(phenylamino)-1,3,4-thiadiazol-2-yl)thio)ethan-1-one] | 7.22 | 0.024 ± 0.002 | 15.93 ± 0.054 | 15.93 ± 0.05 | 0.70 | 11.1 ± 0.205 | 11.1 ± 0.21 | 80.93 | – | – | – |
| O=C(CSc1nnc(Nc2ccc(Cl)cc2)s1)N1N=C(c2ccccc2)CC1c1ccc([N+](=O)[O-])cc1 (stereo not drawn) [Compound 6j, 2-((5-((4-Chlorophenyl)amino)-1,3,4-thiadiazol-2-yl)thio)-1-(5-(4-nitrophenyl)-3-phenyl-4,5-dihydro-1H-pyrazol-1-yl)ethan-1-one] | 5.68 | – | 67.2 ± 3.63 | 67.2 ± 3.63 | 0.72 | 48.3 ± 1.72 | – | – | 8.49 ± 0.667 | 8.49 ± 0.67 | – |
| C=CCNc1nnc(SCC(=O)N2N=C(c3ccccc3)CC2c2ccc([N+](=O)[O-])cc2)s1 (stereo not drawn) [Compound 6d, 2-((5-(Allylamino)-1,3,4-thiadiazol-2-yl)thio)-1-(5-(4-nitrophenyl)-3-phenyl-4,5-dihydro-1H-pyrazol-1-yl)ethan-1-one] | 2.3 | – | 35.7 ± 2.24 | 35.7 ± 2.24 | 0.33 | 11.9 ± 0.486 | 11.9 ± 0.49 | – | 5.18 ± 0.164 | 5.18 ± 0.16 | – |
| COc1ccc(Nc2nnc(SCC(=O)N3N=C(c4ccccc4)CC3c3ccc([N+](=O)[O-])cc3)s2)cc1 (stereo not drawn) [Compound 6i, 2-((5-((4-Methoxyphenyl)amino)-1,3,4-thiadiazol-2-yl)thio)-1-(5-(4-nitrophenyl)-3-phenyl-4,5-dihydro-1H-pyrazol-1-yl)ethan-1-one] | >6.01 | – | > 100 | – | – | > 100 | – | – | 16.6 ± 0.21 | – | – |
| COc1cccc2c1C(=O)c1c(O)c3c(c(O)c1C2=O)C[C@@](O)(C(=O)CO)C[C@@H]3O[C@H]1C[C@H](N)[C@H](O)[C@H](C)O1 [doxorubicin, reference compound] | >374.95 | – | 1.59 ± 0.1 | – | >629.33 | > 1000 | – | 30.27 | 2.67 ± 0.12 | – | – |
| O=C(CSc1nnc(NC2CCCCC2)s1)N1N=C(c2ccccc2)CC1c1ccc([N+](=O)[O-])cc1 (stereo not drawn) [Compound 6f, 2-((5-(Cyclohexylamino)-1,3,4-thiadiazol-2-yl)thio)-1-(5-(4-nitrophenyl)-3-phenyl-4,5-dihydro-1H-pyrazol-1-yl)ethan-1-one] | <0.61 | – | > 100 | – | <0.61 | 60.5 ± 3.72 | – | – | > 100 | – | no activity |
| CCNc1nnc(SCC(=O)N2N=C(c3ccccc3)CC2c2ccc([N+](=O)[O-])cc2)s1 (stereo not drawn) [Compound 6a, 2-((5-(Ethylamino)-1,3,4-thiadiazol-2-yl)thio)-1-(5-(4-nitrophenyl)-3-phenyl-4,5-dihydro-1H-pyrazol-1-yl)ethan-1-one] | 6.24 | – | > 100 | – | <0.87 | 86.7 ± 4.07 | – | – | 13.9 ± 0.25 | – | – |
| CC(C)Nc1nnc(SCC(=O)N2N=C(c3ccccc3)CC2c2ccc([N+](=O)[O-])cc2)s1 (stereo not drawn) [Compound 6c, 2-((5-(Isopropylamino)-1,3,4-thiadiazol-2-yl)thio)-1-(5-(4-nitrophenyl)-3-phenyl-4,5-dihydro-1H-pyrazol-1-yl)ethan-1-one] | 1.19 | – | > 100 | – | <0.33 | 33.2 ± 2.37 | – | – | 27.9 ± 1.28 | – | – |
| Cc1ccc(Nc2nnc(SCC(=O)N3N=C(c4ccccc4)CC3c3ccc([N+](=O)[O-])cc3)s2)cc1 (stereo not drawn) [Compound 6h, 1-(5-(4-Nitrophenyl)-3-phenyl-4,5-dihydro-1H-pyrazol-1-yl)-2-((5-(p-tolylamino)-1,3,4-thiadiazol-2-yl)thio)ethan-1-one] | >3.44 | – | 92.6 ± 1.89 | – | >1.08 | > 100 | – | – | 29.1 ± 1.01 | – | – |
| CCCNc1nnc(SCC(=O)N2N=C(c3ccccc3)CC2c2ccc([N+](=O)[O-])cc2)s1 (stereo not drawn) [Compound 6b, 1-(5-(4-Nitrophenyl)-3-phenyl-4,5-dihydro-1H-pyrazol-1-yl)-2-((5-(propylamino)-1,3,4-thiadiazol-2-yl)thio)ethan-1-one] | – | – | 63.4 ± 2.09 | – | – | 47.2 ± 4.53 | – | – | 15.8 ± 0.75 | – | – |

From article PMC10468883, “Synthesis and Anticancer Activities of Pyrazole–Thiadiazole-Based EGFR Inhibitors” (ACS Omega, 2023)
